The record followed here is patent publication US20110184188A1, “Insecticidal Benzenedicarboxamide Derivative” (priority 2008, published 2011).

What all share (assay type): in vivo
In test [1] the test system is Spodoptera litura third instar larvae. Put plainly: Test to larva of Spodoptera litura (sweet potato leaf dip). The settings on record: foliar, 168 h; Spodoptera litura third instar larvae, active ingredient concentration 20 ppm, seven days later, 25° C.; read-out: insect mortality. Here is the method:
Test to Larva of Spodoptera litura
Solvent: dimethylformamide 3 parts by weight Emulsifier: polyoxyethylene alkyl phenyl ether 1 part by weight
In order to prepare preparations of suitable active compounds, 1 part by weight of each of the active compounds was blended with the above amount of the solvent containing the above amount of the emulsifier, and the resulting mixture was diluted to a prescribed concentration with water.
Leaves of sweet potato were immersed in the tested liquid medication of a prescribed concentration diluted with water. After air drying of the liquid medication, the leaves were put into a petri dish of a diameter of 9 cm, and 10 Spodoptera litura third instar larvae were released in the petri dish, and the petri dish was placed in a constant temperature room of 25° C. Two days later and four days later, leaves of sweet potato were added. Seven days later, the number of dead insects was examined, and insect mortality was calculated.
In the present test, results of 2 petri dishes for each compound were averaged.

The subject of a further test is Lucilia cuprina. Briefly: Test to Lucilia cuprina (larvae on horse minced meat). The conditions noted are these: effective ingredient concentration 100 ppm, read-out: insecticide activity (mortality). Here is the method: (§1) Solvent: dimethylsulfoxide
(§2) In order to prepare preparations of suitable active compounds, 10 mg of each of the active compounds was dissolved into 0.5 ml of the above solvent, and the resulting mixture was diluted to a prescribed concentration with water.
About 20 to 30 larvae of Lucilia cuprina were put into the test tube in which 1 cm^3 of horse minced meat and 0.5 ml of the aqueous solution of the compound prepared in the above were put. After a fixed time passed, the mortality of the Lucilia cuprina was obtained. 100% mortality means that all the individuals were dead, and 0% mortality means that all the individuals were alive.

A further test has as its system Musca domestica. Put plainly: Test to Musca domestica (adults, sugar sponge). The settings on record: effective ingredient concentration 100 ppm, read-out: insecticide activity (mortality). Here is the method:
as §1, §2
As a preparative stage of the test, a fixed size of sponge was soaked in a mixture of sugar and the compound aqueous solution prepared in the above, and was placed in a test container. Ten adults of Musca domestica were put into the container, and the container was closed with a cap having ventilation holes. After a fixed time passed, a mortality rate of Musca domestica was acquired. 100% mortality means that all the individuals were dead, and 0% mortality means that all the individuals were alive.

For orientation: mortality means the percentage killed. With `CSC[C@H](C)NC(=O)c1c(Br)cccc1C(=O)Nc1ccc(Cn2cc(C(F)(F)C(F)(F)F)c(C(F)(F)C(F)(F)F)n2)cc1C` [13-132, N^1-(4-{[3,4-bis(pentafluoroethyl)-1H-pyrazol-1-yl]methyl}-2-methylphenyl)-3-bromo-N^2-[(1S)-1-methyl-2-(methylthio)ethyl]-1,2-benzenedicarboxamide], in test [1], the mortality at 20 ppm worked out at 100%. Also, the mortality at 100 ppm was not below 80% with Lucilia cuprina and not below 70% in the test on Musca domestica.

Regarding `Cc1cc(Cn2cc(C(F)(F)C(F)(F)F)c(C(F)(F)C(F)(F)F)n2)ccc1NC(=O)c1cccc(Br)c1C(=O)N[C@@H](C)C[S+](C)[O-]` (stereo partly drawn) [13-137, N^1-(4-{[3,4-bis(pentafluoroethyl)-1H-pyrazol-1-yl]methyl}-2-methylphenyl)-3-bromo-N^2-[(1S)-1-methyl-2-(methylsulfinyl)ethyl]-1,2-benzenedicarboxamide], the mortality at 20 ppm in test [1] was 100%. The mortality at 100 ppm is not below 80% in the test with Lucilia cuprina and not below 70% with Musca domestica.
